Assays:
hOAT3 [1] = target: T1, hOAT3 (Homo sapiens, UniProt Q8TCC7); assay: Cis-inhibition assay, 3H-estrone sulfate uptake in hOAT3-MDCK cells; format: cell-based; conditions: 10 µM pinocembrin, compared with vehicle control
T1 construct: host or cells: MDCK
T1 sequence (Q8TCC7 1-542): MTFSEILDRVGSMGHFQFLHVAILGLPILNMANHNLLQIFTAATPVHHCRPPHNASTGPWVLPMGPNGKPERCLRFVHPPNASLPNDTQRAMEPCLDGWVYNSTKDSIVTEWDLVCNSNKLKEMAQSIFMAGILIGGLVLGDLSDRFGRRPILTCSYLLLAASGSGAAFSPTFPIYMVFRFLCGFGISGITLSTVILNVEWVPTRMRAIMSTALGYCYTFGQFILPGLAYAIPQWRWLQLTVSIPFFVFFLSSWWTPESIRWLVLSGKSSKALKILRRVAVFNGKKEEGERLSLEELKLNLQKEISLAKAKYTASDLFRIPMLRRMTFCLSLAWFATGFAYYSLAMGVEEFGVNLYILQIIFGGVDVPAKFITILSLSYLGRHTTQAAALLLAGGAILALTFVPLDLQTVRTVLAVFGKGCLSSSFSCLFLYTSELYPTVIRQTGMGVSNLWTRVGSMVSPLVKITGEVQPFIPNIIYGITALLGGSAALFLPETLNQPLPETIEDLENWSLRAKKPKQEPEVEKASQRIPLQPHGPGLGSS
Method: Next, the effects of pinocembrin on the transport function of renal drug transporters, including hOAT1, hOAT3, hOCT1, hOCT2, hMATE1, and hMATE2, were determined.
A cell monolayer comprising hOAT1-MDCK, hOAT3-MDCK, hOCT1-CHO-K1, hOCT2-CHO-K1, hMATE1-CHO-K1, hMATE2-CHO-K1, and mock cells were utilized for the uptake experiments. The cells were washed three times with a buffer containing (in mM) 140 NaCl, 5 KCl, 0.4 MgSO4, 0.5 MgCl2, 1 CaCl2, 0.3 Na2HPO4, 0.4 KH2PO4, 6 D-glucose, and 4 NaHCO3 at pH 7.4 and incubated at 37 °C for 15 min. After incubation, the hOAT1-MDCK and hOAT3-MDCK cells were incubated for 10 min with ^3H-PAH and ^3H-estrone sulfate, a substrate of hOAT1 and hOAT3, respectively. The hOCT1-CHO-K1 and hOCT2-CHO-K1 cells were incubated with ^3H-MPP^+, a substrate of OCT1 and OCT2, for five minutes. The functions of MATE1 and MATE2 were determined by incubating the hMATE1-CHO-K1 and hMATE2-CHO-K1 cells with a buffer containing ^3H-MPP^+, a substrate of MATE1 and MATE2, at pH 8.5 for five minutes. The cells were washed three times with an ice-cold buffer to stop the transport function. The cells were lyzed with 0.4 N NaOH for at least four hours. The samples were collected and transferred to vials containing a liquid scintillation cocktail to measure radioactivity by a β-counter (Packard BioScience, Wellesley, MA, USA). […]

hOAT3 [2] = target: T1, hOAT3; assay: hOAT3-mediated 6-CF uptake in hOAT3-MDCK cells (inhibitory potency and kinetics); format: cell-based
Method: To determine the inhibitory potency of pinocembrin on the hOAT1 and hOAT3 function, the IC50 of pinocembrin on the hOAT1- and hOAT3-mediated uptake of 6-carboxyfluorescein (6-CF), a fluorescent substrate of hOAT1 and hOAT3, was determined. […] Next, the inhibitory mechanism of pinocembrin was determined using a kinetic study.
The hOAT1-MDCK and hOAT3-MDCK cell monolayers were incubated at 37 °C with an uptake buffer containing 6-CF (10 µM), a fluorescent substrate of hOAT1 and hOAT3 [12], and pinocembrin (0–50 µM) for 10 min. Uptake was terminated by removing the uptake solution and washing four times with a cold buffer. The cell monolayers were lysed with 0.4 N NaOH for 30 min. The samples were transferred to 96-black well plates to measure the fluorescence intensity using a fluorescent plate reader (EnVision XCite 2105 Multimode Plate Reader, Packard BioScience, Wellesley, MA, USA) at excitation and emission wavelengths of 490 and 510, respectively. The IC50 of pinocembrin on hOAT1- and hOAT3-mediated 6-CF uptake was calculated in GraphPad Prism using sigmoidal concentration–response analysis using the equation Y = 100/(IC50/X)^HillSlope (X is the concentration, while Y is the normalized response). In addition, the estimated inhibitory constant (Ki) was calculated using the Cheng–Prusoff equation.
The hOAT1-MDCK and hOAT3-MDCK cell monolayers were incubated with 6-CF at increasing concentrations (0 to 100 µM) and in the absence or presence of 5 µM pinocembrin for 10 min. The kinetic parameters of 6-CF transport by hOAT1 and hOAT3 in the presence of pinocembrin were determined using nonlinear regression analysis to fit the Michaelis–Menten kinetic equation: V=Vmax[S]/Km+[S] where V is the rate of 6-CF transport, Vmax is the maximum rate of 6-CF transport, Km is the 6-CF concentration that results in half the maximum transport (Michaelis–Menten constant), and [S] is the concentration of 6-CF in the transport reaction.

CYP2C19 = target: T2, CYP2C19 (Homo sapiens, UniProt P33261); assay: Cell-free CYP450 inhibition assay, CYP2C19; format: biochemical; conditions: cell-free fluorescent probe assay
T2 construct: purchased Life Technologies
Method: To determine whether pinocembrin influences the catalytic activity of CYP450 enzymes, fluorescent probe reaction assays were performed using varying concentrations of pinocembrin. […] In addition, molecular docking was conducted to better understand the binding mode and interactions between pinocembrin and human CYP2C19.
The CYP450 inhibitory activity of pinocembrin was determined using a P450 screening kit (Life Technologies; Carlsbad, CA, USA). Varied concentrations of pinocembrin were prepared in methanol. […] The fluorescence intensities were monitored every minute for 60 min at room temperature. The percentage of inhibition was calculated according to the following equation: % Inhibition=(1−X−B/A−B)×100% where X is the fluorescence intensity observed in the presence of pinocembrin.

CYP2C8 = test system: CYP2C8; parameters: method as in PMID 34069400, doi:10.5562/cca3652, PMID 35721953; conditions: cited from earlier work

T2 sequence (P33261 whole entry): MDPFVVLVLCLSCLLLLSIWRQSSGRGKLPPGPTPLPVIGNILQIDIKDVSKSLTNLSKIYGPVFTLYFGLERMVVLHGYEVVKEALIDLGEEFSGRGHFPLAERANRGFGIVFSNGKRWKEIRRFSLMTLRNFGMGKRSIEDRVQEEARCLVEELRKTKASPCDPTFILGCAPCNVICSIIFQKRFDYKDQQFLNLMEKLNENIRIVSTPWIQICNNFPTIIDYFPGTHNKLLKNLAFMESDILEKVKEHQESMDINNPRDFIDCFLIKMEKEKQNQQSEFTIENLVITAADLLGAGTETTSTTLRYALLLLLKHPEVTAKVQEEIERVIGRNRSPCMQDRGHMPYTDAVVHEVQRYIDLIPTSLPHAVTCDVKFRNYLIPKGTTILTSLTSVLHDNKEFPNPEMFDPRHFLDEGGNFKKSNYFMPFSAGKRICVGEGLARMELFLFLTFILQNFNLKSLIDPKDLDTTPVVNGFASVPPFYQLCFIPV

Q: With `O=C1C[C@@H](c2ccccc2)Oc2cc(O)cc(O)c21` [pinocembrin] as the compound, how does the “3H-estrone sulfate cellular accumulation” value (hOAT3 [1]) read?
A: The value was “significantly decreased”.

Q: And the “Vmax of hOAT3-mediated 6-CF uptake, With Pinocembrin” value (hOAT3 [2]; 5 μM pinocembrin, 6-CF up to 100 μM, hOAT3-MDCK cells)?
A: The value was 11.32 ± 2.33 nmol/min/cm^2.

Q: And the IC50 (hOAT3 [2]; hOAT3-MDCK cells, 6-CF 10 µM, mean ± S.D., three experiments)?
A: Its IC50 is 2.38 ± 0.98 µM.

Q: And the Ki (hOAT3 [2]; hOAT3-MDCK cells, estimated with the Cheng–Prusoff equation)?
A: The Ki was 1.3 ± 0.24 µM.

Q: And the “inhibitory mechanism on hOAT3 transport function” value (hOAT3 [2]; kinetic study, 5 μM pinocembrin: Km increased, Vmax unchanged)?
A: The value was “competitively”.

Q: And the IC50 (CYP2C19; BACULOSOMES)?
A: The IC50 was 4.5 µM.

Q: What about the IC50 at 60 min (CYP2C19; human, CYP2C19 BACULOSOMES (cell-free recombinant enzyme)) of the same compound?
A: Its IC50 at 60 min is 4.49 µM.

Q: And the “effect on the activity of CYP2C8” value (CYP2C8)?
A: The value was “does not affect”.

From article PMC11768629, “Potential Interaction of Pinocembrin with Drug Transporters and Hepatic Drug-Metabolizing Enzymes” (Pharmaceuticals, 2025)
